Source: the supplement of paper PMC5908809

Legend:
KAI3 (IL-2 2.5 ng/mL) [1] = assay: percent inhibition of viability; higher = more inhibition; conditions: 72 h
IMC-1 (IL-2 20 ng/mL) [2] = assay: as above; conditions: 72 h
NKL (IL-2 2.5 ng/mL) [3] = assay: as above; conditions: 72 h
DERL-7 (IL-2 2.5 ng/mL) [4] = assay: as above; conditions: 72 h
[5] = tested on: normal primary NK cells, pool 1 (3 donors), resting (IL-2 0 ng/mL); assay: as above; conditions: 72 h
NK-92 (IL-2 2.5 ng/mL) [6] = assay: as above; conditions: 72 h
NK-YS (IL-2 2.5 ng/mL) [7] = assay: as above; conditions: 72 h
KHYG-1 (IL-2 2.5 ng/mL) [8] = assay: as above; conditions: 72 h
SNK-6 (IL-2 2.5 ng/mL) [9] = assay: as above; conditions: 72 h
[10] = tested on: normal primary NK cells, pool 3 (3 donors) (IL-2 2.5 ng/mL); assay: as above; conditions: 72 h
YT (IL-2 2.5 ng/mL) [11] = assay: as above; conditions: 72 h
[12] = tested on: normal primary NK cells, pool 2 (3 donors) (IL-2 2.5 ng/mL); assay: as above; conditions: 72 h
[13] = tested on: normal primary NK cells, pool 1 (3 donors) (IL-2 2.5 ng/mL); assay: as above; conditions: 72 h
KAI3 (IL-2 2.5 ng/mL) [14] = assay: drug sensitivity score (DSS) (DSS units); higher = more sensitive; extreme values may be limits of the assay; conditions: 72 h
IMC-1 (IL-2 20 ng/mL) [15] = assay: as above; conditions: 72 h
NKL (IL-2 2.5 ng/mL) [16] = assay: as above; conditions: 72 h
DERL-7 (IL-2 2.5 ng/mL) [17] = assay: as above; conditions: 72 h
[18] = tested on: normal primary NK cells, pool 1 (3 donors), resting (IL-2 0 ng/mL); assay: as above; conditions: 72 h
NK-92 (IL-2 2.5 ng/mL) [19] = assay: as above; conditions: 72 h
NK-YS (IL-2 2.5 ng/mL) [20] = assay: as above; conditions: 72 h
KHYG-1 (IL-2 2.5 ng/mL) [21] = assay: as above; conditions: 72 h
SNK-6 (IL-2 2.5 ng/mL) [22] = assay: as above; conditions: 72 h
[23] = tested on: normal primary NK cells, pool 3 (3 donors) (IL-2 2.5 ng/mL); assay: as above; conditions: 72 h
YT (IL-2 2.5 ng/mL) [24] = assay: as above; conditions: 72 h
[25] = tested on: normal primary NK cells, pool 2 (3 donors) (IL-2 2.5 ng/mL); assay: as above; conditions: 72 h
[26] = tested on: normal primary NK cells, pool 1 (3 donors) (IL-2 2.5 ng/mL); assay: as above; conditions: 72 h
[27] = tested on: normal NK cells expanded with K562-aAPC; assay: percent inhibition of viability; higher = more inhibition; conditions: 72 h, IL-2 2.5 ng/mL
Experimental: (§1)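 Drug sensitivity and resistance testing on K562-aAPC-expanded normal NK cells: 5 concentrations (10-fold steps over a 10,000-fold range), 72 h at 37 °C, viability by CellTiter-Glo normalised to DMSO and benzethonium chloride controls; DSS from the fitted curve.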

[28] = tested on: normal NK cells expanded with K562-aAPC; assay: drug sensitivity score (DSS) (DSS units); higher = more sensitive; extreme values may be limits of the assay; conditions: 72 h; IL-2 2.5 ng/mL
Experimental: as §1

Nc1cccc2c1CN(C1CCC(=O)NC1=O)C2=O (stereo not drawn) [Lenalidomide] (max concentration tested 100000 nM)
percent inhibition of viability [%]
Conditions | 10 nM | 100 nM | 1000 nM | 10000 nM | 100000 nM
DERL-7 (IL-2 2.5 ng/mL) [4] | -8.15 | -7.59 | -6.54 | -8.34 | -1.1
IMC-1 (IL-2 20 ng/mL) [2] | -4.67 | 1.54 | 2.6 | 7.23 | 12.5
KAI3 (IL-2 2.5 ng/mL) [1] | -8.97 | 1.64 | -0.65 | 10.5 | 50.6
KHYG-1 (IL-2 2.5 ng/mL) [8] | -5.45 | 0.35 | 0.75 | 5.6 | 18.1
NK-92 (IL-2 2.5 ng/mL) [6] | -4.74 | -0.2 | 7.52 | 10.4 | 35.1
NK-YS (IL-2 2.5 ng/mL) [7] | -1.44 | -1.49 | 0.99 | 3.35 | 15.9
NKL (IL-2 2.5 ng/mL) [3] | -12.2 | -2.95 | -12.4 | 8.93 | 39.2
SNK-6 (IL-2 2.5 ng/mL) [9] | 5.02 | 1.16 | 7.72 | 40.7 | 50.3
YT (IL-2 2.5 ng/mL) [11] | 0.52 | 3.88 | 7 | 1.78 | 15.6
[5] | 1.29 | -2.98 | 10.6 | 35.5 | 59.5
[10] | -9.99 | -13.1 | 8.3 | -7.53 | 12.1
[12] | -16.8 | -10.4 | 4.67 | -3.79 | 13.3
[13] | 4.48 | -7.64 | 6.17 | 0.68 | 22
[27] | -4.41 | -0.84 | -0.51 | 11.3 | 16.5

Conditions | drug sensitivity score
DERL-7 (IL-2 2.5 ng/mL) [17] | 0
IMC-1 (IL-2 20 ng/mL) [15] | 0.13
KAI3 (IL-2 2.5 ng/mL) [14] | 4.39
KHYG-1 (IL-2 2.5 ng/mL) [21] | 1.04
NK-92 (IL-2 2.5 ng/mL) [19] | 2.68
NK-YS (IL-2 2.5 ng/mL) [20] | 0.64
NKL (IL-2 2.5 ng/mL) [16] | 3.34
SNK-6 (IL-2 2.5 ng/mL) [22] | 8.33
YT (IL-2 2.5 ng/mL) [24] | 0.46
[18] | 7.86
[23] | 0.01
[25] | 0.06
[26] | 0.82
[28] | 1.25

COc1cc2nccc(Oc3ccc(NC(=O)NC4CC4)c(Cl)c3)c2cc1C(N)=O [Lenvatinib] (max concentration tested 2500 nM)
percent inhibition of viability [%]
Conditions | 0.25 nM | 2.5 nM | 25 nM | 250 nM | 2500 nM
DERL-7 (IL-2 2.5 ng/mL) [4] | -0.62 | 1.25 | 2.95 | -3.62 | 5.92
IMC-1 (IL-2 20 ng/mL) [2] | -6.27 | -2.01 | -2.37 | 0.43 | 3.18
KAI3 (IL-2 2.5 ng/mL) [1] | -5.44 | 0.76 | 3.58 | 15.2 | 41.1
KHYG-1 (IL-2 2.5 ng/mL) [8] | -6.43 | -1.14 | -3.61 | 2.55 | 13.7
NK-92 (IL-2 2.5 ng/mL) [6] | -9.84 | 0.14 | -0.46 | 17.2 | 37.8
NK-YS (IL-2 2.5 ng/mL) [7] | -8.22 | -3.14 | -1.94 | 6.7 | 25.7
NKL (IL-2 2.5 ng/mL) [3] | -6.25 | -5.72 | 2.51 | 23.8 | 33.6
SNK-6 (IL-2 2.5 ng/mL) [9] | -33.9 | -23.3 | -21.9 | -19.5 | -12.3
YT (IL-2 2.5 ng/mL) [11] | -8.36 | -6.83 | -3.92 | 0.74 | 22.8
[5] | -5.39 | 10.9 | 5.68 | 1.5 | 8.67
[10] | -0.41 | -2.47 | 2.78 | -8.95 | -1.48
[12] | -4.17 | -2.51 | -1.07 | -9.36 | -5.82
[13] | -3.95 | 5.45 | 5.1 | 3.42 | 13.3
[27] | -4.04 | -5.14 | -2.63 | 6.46 | 19.2

Conditions | drug sensitivity score
DERL-7 (IL-2 2.5 ng/mL) [17] | 0
IMC-1 (IL-2 20 ng/mL) [15] | 0
KAI3 (IL-2 2.5 ng/mL) [14] | 3.76
KHYG-1 (IL-2 2.5 ng/mL) [21] | 0.34
NK-92 (IL-2 2.5 ng/mL) [19] | 4.08
NK-YS (IL-2 2.5 ng/mL) [20] | 1.95
NKL (IL-2 2.5 ng/mL) [16] | 4.35
SNK-6 (IL-2 2.5 ng/mL) [22] | 0.89
YT (IL-2 2.5 ng/mL) [24] | 0.88
[18] | 0
[23] | 0
[25] | 0.89
[26] | 0.01
[28] | 1.26
